Assay results taken from PMC5733700 (Bioorganic & medicinal chemistry, 2017).

Assays:
[1] = target: BRD2-BD2 (348–455) (Homo sapiens, UniProt P25440); experiment: Isothermal titration calorimetry; type: binding; details: 15 °C, no DMSO in buffer
[2] = target: BRD2-BD1 (74–194) (Homo sapiens, UniProt P25440); experiment: Isothermal titration calorimetry; type: binding; details: 15 °C, no DMSO in buffer
[3] = tested on: BJ cells; experiment: Non-specific cytotoxicity, BJ control cell line; type: cell-based; details: control immortalized fibroblast cell line; 3 days exposure
[4] = tested on: HEPG2 cells; experiment: Non-specific cytotoxicity, HEPG2 control cell line; type: cell-based; details: control hepatocarcinoma cell line; 3 days exposure
[5] = tested on: HEK293 cells; experiment: Non-specific cytotoxicity, HEK293 control cell line; type: cell-based; details: control embryonic kidney cell line; 3 days exposure

BRD2-BD1 (74–194), sequence (P25440 74-194): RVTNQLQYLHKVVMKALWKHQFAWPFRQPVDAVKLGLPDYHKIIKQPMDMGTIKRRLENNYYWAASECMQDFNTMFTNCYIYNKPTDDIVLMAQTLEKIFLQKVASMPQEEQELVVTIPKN
BRD2-BD2 (348–455), sequence (P25440 348-455): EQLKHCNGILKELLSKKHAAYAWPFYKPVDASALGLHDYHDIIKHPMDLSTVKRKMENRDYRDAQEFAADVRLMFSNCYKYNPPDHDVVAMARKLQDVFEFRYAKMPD

| Compound | ITC ΔH, BRD2 BD2 [1] | ITC −TΔS, BRD2 BD2 [1] | ITC ΔH, BRD2 BD1 [2] | ITC −TΔS, BRD2 BD1 [2] | Cytotoxicity EC50, BJ [3] | Cytotoxicity EC50, HEPG2 [4] | Cytotoxicity EC50, HEK293 [5] | ITC ΔG, BRD2 BD1 [2] | ITC ΔG, BRD2 BD2 [1] |
| --- | --- | --- | --- | --- | --- | --- | --- | --- | --- |
| Cc1sc2c(c1C)C(c1ccc(Cl)cc1)=N[C@@H](CC(=O)OC(C)(C)C)c1nnc(C)n1-2 [Compound 1, (+)-JQ1, reference compound] | -1.47 kcal/mol | -7.83 kcal/mol | -4.9 kcal/mol | -4.39 kcal/mol |  |  |  |  |  |
| CC(=O)N1c2ccc(-c3ccco3)cc2[C@H](NC(=O)OC(C)C)C[C@@H]1C [Compound 9, Isopropyl ((2S,4R)-1-acetyl-6-(furan-2-yl)-2-methyl-1,2,3,4-tetrahydroquinolin-4-yl)carbamate] |  |  | -7.27 kcal/mol | -0.2 kcal/mol | did not exhibit cytotoxicity at the highest concentrations tested | did not exhibit cytotoxicity at the highest concentrations tested | did not exhibit cytotoxicity at the highest concentrations tested | -7.47 kcal/mol |  |
| CC(=O)N1c2ccc(-c3cccs3)cc2[C@H](NC(=O)OC(C)C)C[C@@H]1C [Compound 10, Isopropyl ((2S,4R)-1-acetyl-2-methyl-6-(thiophen-2-yl)-1,2,3,4-tetrahydroquinolin-4-yl)carbamate] | -7.18 kcal/mol | -2.94 kcal/mol | -8.27 kcal/mol | -1.25 kcal/mol |  |  |  | -9.52 kcal/mol | -10.12 kcal/mol |
| CC(=O)N1c2ccc(-c3ccc[nH]3)cc2[C@H](NC(=O)OC(C)C)C[C@@H]1C [Compound 11, Isopropyl ((2S,4R)-1-acetyl-2-methyl-6-(1H-pyrrol-2-yl)-1,2,3,4-tetrahydroquinolin-4-yl)carbamate] | -6.89 kcal/mol | -2.92 kcal/mol | -6.9 kcal/mol | -2.18 kcal/mol |  |  |  | -9.08 kcal/mol | -9.82 kcal/mol |
| CC(=O)N1c2ccc(-c3ccoc3)cc2[C@H](NC(=O)OC(C)C)C[C@@H]1C [Compound 12, Isopropyl ((2S,4R)-1-acetyl-6-(furan-3-yl)-2-methyl-1,2,3,4-tetrahydroquinolin-4-yl)carbamate] | -6.31 kcal/mol | -2.29 kcal/mol | -9.9 kcal/mol | 0.94 kcal/mol |  |  |  | -8.96 kcal/mol | -8.61 kcal/mol |
| CC(=O)N1c2ccc(-c3ccsc3)cc2[C@H](NC(=O)OC(C)C)C[C@@H]1C [Compound 13, Isopropyl ((2S,4R)-1-acetyl-2-methyl-6-(thiophen-3-yl)-1,2,3,4-tetrahydroquinolin-4-yl)carbamate] | -6.92 kcal/mol | -3.33 kcal/mol | -7.69 kcal/mol | -1.74 kcal/mol |  |  |  | -9.43 kcal/mol | -10.25 kcal/mol |
| CC(=O)N1c2ccc(-c3cc[nH]c3)cc2[C@H](NC(=O)OC(C)C)C[C@@H]1C [Compound 14, Isopropyl ((2S,4R)-1-acetyl-2-methyl-6-(1H-pyrrol-3-yl)-1,2,3,4-tetrahydroquinolin-4-yl)carbamate] | -7.01 kcal/mol | -3.32 kcal/mol | -7.33 kcal/mol | -1.95 kcal/mol |  |  |  | -9.28 kcal/mol | -10.15 kcal/mol |
